Like-named read-outs stand apart in the source and are kept apart here.
Columns and labels:
Assay type in all cases: in vivo, human
[1] = system: participants with type 2 diabetes mellitus (T2DM); assay: Clinical dose guiding study: 24-hour mean daily glucose (MDG); details: Day 28; for Mean Daily Glucose, Mean CFB: oral, on metformin
Text: (§1) This study was a randomized, double-blind (sponsor-open), parallel, placebo-controlled, multiple oral dose-escalating study of Compound 1 (in the form of its tris salt) in participants with type 2 diabetes mellitus (T2DM) on a background of metformin monotherapy.
(§2) A total of 98 participants received oral doses of Compound 1 (in the form of its tris salt) or matching placebo for 28 days, in this study. A total of approximately 12 participants were enrolled in each cohort with a randomization ration of 3:1 (9 active and 3 placebo), and 8 cohorts were enrolled in the study. Participants were admitted to the clinical research unit (CRU) on or before Day −2 and were discharged following completion of all assessments on Day 30, at principal investigator discretion. For individual participants, the total duration of participation from the Screening visit to the on-site Follow-up visit was approximately 15 weeks. A Follow-up visit and a Follow-up contact (which have been conducted by phone call) occurred 35-42 days and 56-63 days following the first dose of investigational product on Day 1, respectively. Participants who discontinued prior to completion of the study might have been replaced, at the discretion of the principal investigator and Sponsor. 92 participants completed the inpatient study.
(§3) The planned titration schemes and dosing paradigms for all Cohorts are listed in Table 2-1. • QD: once daily • BID: twice daily
(§4) Diagnosis and Main Criteria for Inclusion: The population for this study was female participants of non-childbearing potential and/or male participants with T2DM, with an HbA1c […], who were taking metformin as their only anti-hyperglycemic treatment, and who were between 18 and 70 years with T2DM at the time of consent and Screening, with a body mass index (BMI) of 24.5 to 45.4 kg/m^2 and a total body weight >50 kg (110 lb). Metformin dose was required to be 500 mg per day and was required to be stable, for at least 2 months prior to the Screening visit and was administered in the CRU according to patient's baseline dosing regimen.
(§5) Study Treatment: Compound 1 (in the form of its tris salt) was supplied as 1 mg, 10 mg, 50 mg and 100 mg immediate release (IR) tablets or 50 mg controlled release (CR) tablets (see Examples 1 and 2) for oral administration. Matching placebo tablets (2:1, Microcrystalline Cellulose: Lactose) were also provided.
(§6) Measurements of fasting plasma glucose (FPG), 24-hour mean daily glucose (MDG), HbA1C, and body weight at baseline (at Day −1) and at Day 28 (shown as change from baselin) are shown in Tables 2-2 to 2-5.
(§7) Baseline was defined as the measurement (MDG, FPG, HbA1c, or body weight) on Day −1. Randomized treatment represented the target dose at Day 28.
Observed data presented. Mean Daily Glucose (MDG) was defined as AUC24/24.

[2] = system: participants with type 2 diabetes mellitus (T2DM); assay: Clinical dose guiding study: fasting plasma glucose (FPG); details: Day 28, oral, on metformin
Text: as §1, §2, §3, §4, §5, §6, §7

[3] = system: participants with type 2 diabetes mellitus (T2DM); assay: Clinical dose guiding study: HbA1c; details: Day 28, oral, on metformin
Text: as §1, §2, §3, §4, §5, §6, §7

[4] = Clinical dose guiding study: body weight; details: Day 28, oral, T2DM on metformin
Text: as §1, §2, §3, §4, §5, §6, §7

[5] = Clinical dose guiding study: plasma pharmacokinetics and urinary recovery; details: for Tmax: read-out: median Tmax and Tmax1
Text: as §1, §2, §5

[6] = system: participants with type 2 diabetes mellitus (T2DM); assay: Clinical dose guiding study: adverse events (TEAEs); details: for number of all causality TEAEs (events) / number of all causality TEAEs: 28 days
Text: as §1, §2, §5

[7] = system: participants with type 2 diabetes mellitus (T2DM); assay: Clinical dose guiding study: ECG; details: planned treatment groups; self-limited
Text: as §1
as §2, with “inpatient study. […]” for “inpatient study.”

In the case of `N#Cc1ccc(COc2cccc(C3CCN(Cc4nc5ccc(C(=O)O)cc5n4C[C@@H]4CCO4)CC3)n2)c(F)c1` [1,3-dihydroxy-2-(hydroxymethyl)propan-2-aminium 2-[(4-{6-[(4-cyano-2-fluorobenzyl)oxy]pyridin-2-yl}piperidin-1-yl)methyl]-1-[(2S)-oxetan-2-ylmethyl]-1H-benzimidazole-6-carboxylate], the “Mean Daily Glucose, Mean CFB” value ([1]; 10 mg BID, baseline 189.9) was -53.3 mg/dL, the “Mean Daily Glucose, Mean CFB” value ([1]; 15 mg BID, baseline 225.4) was -85.9 mg/dL and the “Mean Daily Glucose, Mean CFB” value ([1]; 50 mg BID, baseline 190.2) was -48.7 mg/dL. For the same compound, the “Mean Daily Glucose, Mean CFB” value ([1]; 70 mg BID, baseline 218.5) was -101.6 mg/dL, the “Mean Daily Glucose, Mean CFB” value ([1]; 120 mg BID Slow Titration, baseline 179.9) was -68.6 mg/dL and the “Mean Daily Glucose, Mean CFB” value ([1]; 120 mg BID, baseline 219.0) was -105.9 mg/dL. The “Mean Daily Glucose, Mean CFB” value ([1]; 120 mg QD, baseline 188.8) was -70.9 mg/dL, the “Mean Daily Glucose, Mean CFB” value ([1]; 200 mg QD Controlled Release, baseline 225.2) was -102.8 mg/dL and the “reductions in FPG, MDG, HbA1c, and body weight” value ([1]; increasing efficacy at higher doses of 70 mg to 120 mg twice daily) was “robust reductions”. The “Fasting Plasma Glucose, Mean CFB” value ([2]; 10 mg BID, baseline 158.3) was -34.3 mg/dL, the “Fasting Plasma Glucose, Mean CFB” value ([2]; 15 mg BID, baseline 198.4) was -66.6 mg/dL and the “Fasting Plasma Glucose, Mean CFB” value ([2]; 50 mg BID, baseline 168.1) was -34.5 mg/dL. The “Fasting Plasma Glucose, Mean CFB” value ([2]; 70 mg BID, baseline 186.3) was -80.6 mg/dL, the “Fasting Plasma Glucose, Mean CFB” value ([2]; 120 mg BID Slow Titration, baseline 176.3) was -75.1 mg/dL and the “Fasting Plasma Glucose, Mean CFB” value ([2]; 120 mg BID, baseline 196.9) was -89.7 mg/dL. For the same compound, the “Fasting Plasma Glucose, Mean CFB” value ([2]; 120 mg QD, baseline 179.9) was -48.3 mg/dL, the “Fasting Plasma Glucose, Mean CFB” value ([2]; 200 mg QD Controlled Release, baseline 195.3) was -77.3 mg/dL and the “HbA1c, Mean CFB” value ([3]; 10 mg BID, baseline 8.2) was −0.8%. For the same compound, the “HbA1c, Mean CFB” value ([3]; 15 mg BID, baseline 8.6) was −0.9%, the “HbA1c, Mean CFB” value ([3]; 50 mg BID, baseline 8.3) was −1.2% and the “HbA1c, Mean CFB” value ([3]; 70 mg BID, baseline 8.3) was −1.2%. The “HbA1c, Mean CFB” value ([3]; 120 mg BID Slow Titration, baseline 8.2) was −1.2%, the “HbA1c, Mean CFB” value ([3]; 120 mg BID, baseline 8.5) was −1.2% and the “HbA1c, Mean CFB” value ([3]; 120 mg QD, baseline 8.2) was −1.0%. For the same compound, the “HbA1c, Mean CFB” value ([3]; 200 mg QD Controlled Release, baseline 8.6) was −1.1%, the “Body Weight, Mean CFB” value ([4]; 10 mg BID, baseline 99.90) was -2.8 kg and the “Body Weight, Mean CFB” value ([4]; 15mg BID, baseline 93.60) was -2.4 kg. For the same compound, the “Body Weight, Mean CFB” value ([4]; 50 mg BID, baseline 88.24) was -2.4 kg, the “Body Weight, Mean CFB” value ([4]; 70 mg BID, baseline 86.08) was -4.0 kg and the “Body Weight, Mean CFB” value ([4]; 120 mg BID Slow Titration, baseline 88.01) was -5.5 kg. The “Body Weight, Mean CFB” value ([4]; 120 mg BID, baseline 101.34) was -7.9 kg, the “Body Weight, Mean CFB” value ([4]; 120 mg QD, baseline 84.88) was -4.3 kg and the “Body Weight, Mean CFB” value ([4]; 200 mg QD Controlled Release, baseline 92.29) was -3.1 kg. For the same compound, the “dose proportionality of exposure (dose normalized mean AUC24)” value ([5]; Day 1, BID and QD treatments, IR formulation) was “approximately dose proportional”, the “dose proportionality of AUC24 and Cmax” value ([5]; Day 28, BID IR formulation cohorts) was “approximately dose-proportional” and the Tmax ([5]; human, plasma, Day 1, single oral dose, IR formulation, QD and BID regimens) was 2 to 4 h. The “incidence of all causalities TEAEs in Gastrointestinal Disorders category” value ([6]; 10 mg BID group (placebo 52.0%)) was 33.3%, the “number of all causality TEAEs (events)” value ([6]; 10 mg BID group) was 8 events and the “number of all causality TEAEs (events)” value ([6]; 15 mg BID group) was 16 events. For the same compound, the “participants discontinued from the study due to treatment-related TEAEs” value ([6]; 15 mg BID group, moderate TEAE of headache) was 1 participant, the “participants with dose reduction or temporary discontinuation due to TEAEs” value ([6]; 50 mg BID group) was 4 participants and the “number of all causality TEAEs” value ([6]; 50 mg BID group) was 45. The “participants discontinued from the study due to treatment-related TEAEs” value ([6]; 50 mg BID group, moderate decreased appetite, nausea, vomiting and mild fatigue) was 1 participant, the “number of all causality TEAEs” value ([6]; 70 mg BID group) was 31 and the “participants with dose reduction or temporary discontinuation due to TEAEs” value ([6]; 120 mg BID Slow titration group) was 2 participants. The “participants with dose reduction or temporary discontinuation due to TEAEs” value ([6]; 120 mg BID group) was 1 participants, the “number of all causality TEAEs” value ([6]; 120 mg BID group) was 43 and the “participants with mild hypoglycemia” value ([6]; 120 mg BID group, after missing a meal or snack, self-limited, treatment-related) was 1 participant. For the same compound, the “severe TEAEs” value ([6]; 120 mg BID slow titration group, 1 treatment-related, 1 not) was 2, the “number of all causality TEAEs (events)” value ([6]; 120 mg BID slow titration group) was 50 events and the SAE ([6]; 120 mg BID slow titration group, not treatment-related) was 1. For the same compound, the “number of all causality TEAEs” value ([6]; 120 mg QD group) was 35, the “participants with dose reduction or temporary discontinuation due to TEAEs” value ([6]; 200 mg QD CR group) was 1 participants and the “number of all causality TEAEs” value ([6]; 200 mg QD CR group) was 47. For the same compound, the “adverse trends in safety laboratory tests, vital signs or ECG parameters with increasing dose” value ([6]; ascending, multiple, oral doses) was “no clinically significant adverse trends”, the “overall safety and tolerability” value ([6]; ascending, multiple, oral doses, adult participants with T2DM) was “generally safe and well-tolerated” and the “participants with post-baseline ECG meeting criteria of QTcF interval >450 and ≤80 or change from baseline >30 and ≤60” value [7] was 3 participants.

For `N#Cc1ccc(COc2cccc(C3CCN(Cc4nc5ccc(C(=O)O)cc5n4C[C@@H]4CCO4)CC3)n2)c(F)c1` [Compound 1, 2-[(4-{6-[(4-Cyano-2-fluorobenzyl)oxy]pyridin-2-yl}piperidin-1-yl)methyl]-1-[(2S)-oxetan-2-ylmethyl]-1H-benzimidazole-6-carboxylic acid], the “Urinary recovery, dose recovered unchanged in urine” value ([5]; Day 28) was < 0.1 % of the dose, the Tmax ([5]; human, plasma, oral, Day 28, BID and QD IR treatments) was 3 to 10 h and the half-life ([5]; human, plasma, oral, across all treatments, read-out: Mean t % (terminal half life)) was 4.7 to 8.1 h.

Reference: US20230201185A1, “TREATMENT OF TYPE 2 DIABETES OR OBESITY OR OVERWEIGHT WITH 2-[(4-{6-[(4-CYANO-2-FLUOROBENZYL)OXY]PYRIDIN-2-YL}PIPERIDIN-1-YL)METHYL]-1-[(2S)-OXETAN-2-YLMETHYL]-1H-BENZIMIDAZOLE-6-CARBOXYLIC ACID OR A PHARMACEUTICALLY SALT THEREOF” (Pfizer Inc., priority 2020, published 2023)
